The source of these data is ChEMBL document CHEMBL1147837, “Methyl 2-(2-(4-formylphenoxy)acetamido)-2-substituted acetate derivatives: a new class of acetylcholinesterase inhibitors” (Bioorg Med Chem Lett, 2007).

A value given as a limit tells only on which side of the number the result lay.

One test concerns the target Acetylcholinesterase (Torpedo californica, UniProt P04058). The test is described as follows: Inhibition of AChE.
Another test has as its target Butyrylcholinesterase (Equus caballus, UniProt Q9N1N9). The test is described as follows: Inhibition of BuChE in horse serum.
Test [1] is described as follows: Selectivity for Torpedo californica AChE over horse BuChE.

Sequence of Acetylcholinesterase (P04058 whole entry): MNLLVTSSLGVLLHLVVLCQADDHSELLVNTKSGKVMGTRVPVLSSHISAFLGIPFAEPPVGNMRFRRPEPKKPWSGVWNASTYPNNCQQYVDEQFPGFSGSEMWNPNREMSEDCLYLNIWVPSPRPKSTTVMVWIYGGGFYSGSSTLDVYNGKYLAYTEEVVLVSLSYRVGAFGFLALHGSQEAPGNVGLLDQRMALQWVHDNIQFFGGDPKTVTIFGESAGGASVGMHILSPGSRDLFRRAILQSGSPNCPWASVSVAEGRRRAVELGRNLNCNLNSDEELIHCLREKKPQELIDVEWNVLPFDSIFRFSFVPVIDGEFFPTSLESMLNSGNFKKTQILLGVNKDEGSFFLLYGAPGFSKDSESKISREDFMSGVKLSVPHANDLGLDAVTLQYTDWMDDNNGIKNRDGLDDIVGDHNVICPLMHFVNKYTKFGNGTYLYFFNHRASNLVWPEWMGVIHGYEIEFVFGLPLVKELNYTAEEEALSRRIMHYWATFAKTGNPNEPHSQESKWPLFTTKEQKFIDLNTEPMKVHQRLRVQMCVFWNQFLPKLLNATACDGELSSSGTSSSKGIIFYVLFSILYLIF
Sequence of Butyrylcholinesterase (Q9N1N9 whole entry): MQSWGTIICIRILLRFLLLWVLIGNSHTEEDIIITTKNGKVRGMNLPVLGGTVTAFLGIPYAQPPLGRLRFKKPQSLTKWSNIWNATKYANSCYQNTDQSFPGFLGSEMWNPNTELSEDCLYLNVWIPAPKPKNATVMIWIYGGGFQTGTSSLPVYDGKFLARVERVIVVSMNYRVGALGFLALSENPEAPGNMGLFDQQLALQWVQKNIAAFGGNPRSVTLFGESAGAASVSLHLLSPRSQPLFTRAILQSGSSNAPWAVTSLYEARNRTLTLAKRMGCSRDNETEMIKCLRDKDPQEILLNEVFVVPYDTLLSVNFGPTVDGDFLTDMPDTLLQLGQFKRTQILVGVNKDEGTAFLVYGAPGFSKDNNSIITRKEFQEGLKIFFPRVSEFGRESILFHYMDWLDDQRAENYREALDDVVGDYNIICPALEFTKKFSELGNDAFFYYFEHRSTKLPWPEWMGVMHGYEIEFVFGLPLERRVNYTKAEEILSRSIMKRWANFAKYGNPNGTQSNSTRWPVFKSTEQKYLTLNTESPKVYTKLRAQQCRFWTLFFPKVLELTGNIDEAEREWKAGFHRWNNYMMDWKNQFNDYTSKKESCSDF

What is called IC50 is the midpoint of a concentration-inhibition curve. A high value points to a need for much substance. On to `COC(=O)C(Cc1c[nH]c2ccccc12)NC(=O)COc1ccc(C=O)cc1` (stereo not drawn), for which the IC50 was 0.28 µM on Acetylcholinesterase and 33.9 µM against Butyrylcholinesterase. Also, the Ratio IC50 in test [1] amounted to 121.
Turning to `COC(=O)C(Cc1ccccc1)NC(=O)COc1ccc(C=O)cc1` (stereo not drawn), the IC50 on Acetylcholinesterase is 4.96 µM.
The compound `COC(=O)CCC(NC(=O)COc1ccc(C=O)cc1)C(=O)OC` (stereo not drawn) returned an IC50 on Acetylcholinesterase above 200 µM.
`O=Cc1ccc(O)cc1` [4-HYDROXYBENZALDEHYDE]: the IC50 on Acetylcholinesterase is above 1000 µM.
Same read-out and setting: with `COC(=O)C(C)NC(=O)COc1ccc(C=O)cc1` (stereo not drawn) the figure was 0.19 µM; with `COC(=O)CNC(=O)COc1ccc(C=O)cc1`, 98.9 µM.
